For assay [1], the target named is PI3Kalpha (Homo sapiens (Human), UniProt P42336). Kind of assay: HTRF PI3K biochemical assay, alpha isoform (selectivity versus PI3Kalpha). Particulars: relative ratio (PI3K-alpha IC50 value/PI3K-delta IC50 value); form screened: Neutral. A digest of the protocol: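 Uses recombinant PI3Kalpha at 0.5 nM with 100 uM ATP and 5 uM PIP2, after a 15 min RT compound pre-incubation and a 1 h RT reaction. PIP3 product displaces biotin-PIP3 from GST-GRP1 PH domain, read as HTRF 665/620 ratio. IC50 from a 10-point dose response, corrected via a PIP3 standard curve.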
Background: TR-FRET usually uses a lanthanide donor and a delayed reading to cut background.

For assay [2], the target named is PI3Kdelta (Homo sapiens (Human), UniProt O00329). Kind of assay: HTRF PI3K biochemical assay, delta isoform. Conditions: 0.3 nM enzyme, 100 uM ATP, 5 uM PIP2, form screened: Neutral. A digest of the protocol: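 0.3 nM PI3Kδ, pre-incubated 15 min at RT with compound (10-point 3-fold series), then reacted 1 h at RT with 100 uM ATP and 5 uM PIP2. After EDTA stop, PIP3 product detected by HTRF competition (GST-GRP1-PH, biotin-PIP3, Eu anti-GST, SA-APC), read 665/620 nm after 1 h.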
PI3Kdelta, sequence (O00329 whole entry, canonical isoform): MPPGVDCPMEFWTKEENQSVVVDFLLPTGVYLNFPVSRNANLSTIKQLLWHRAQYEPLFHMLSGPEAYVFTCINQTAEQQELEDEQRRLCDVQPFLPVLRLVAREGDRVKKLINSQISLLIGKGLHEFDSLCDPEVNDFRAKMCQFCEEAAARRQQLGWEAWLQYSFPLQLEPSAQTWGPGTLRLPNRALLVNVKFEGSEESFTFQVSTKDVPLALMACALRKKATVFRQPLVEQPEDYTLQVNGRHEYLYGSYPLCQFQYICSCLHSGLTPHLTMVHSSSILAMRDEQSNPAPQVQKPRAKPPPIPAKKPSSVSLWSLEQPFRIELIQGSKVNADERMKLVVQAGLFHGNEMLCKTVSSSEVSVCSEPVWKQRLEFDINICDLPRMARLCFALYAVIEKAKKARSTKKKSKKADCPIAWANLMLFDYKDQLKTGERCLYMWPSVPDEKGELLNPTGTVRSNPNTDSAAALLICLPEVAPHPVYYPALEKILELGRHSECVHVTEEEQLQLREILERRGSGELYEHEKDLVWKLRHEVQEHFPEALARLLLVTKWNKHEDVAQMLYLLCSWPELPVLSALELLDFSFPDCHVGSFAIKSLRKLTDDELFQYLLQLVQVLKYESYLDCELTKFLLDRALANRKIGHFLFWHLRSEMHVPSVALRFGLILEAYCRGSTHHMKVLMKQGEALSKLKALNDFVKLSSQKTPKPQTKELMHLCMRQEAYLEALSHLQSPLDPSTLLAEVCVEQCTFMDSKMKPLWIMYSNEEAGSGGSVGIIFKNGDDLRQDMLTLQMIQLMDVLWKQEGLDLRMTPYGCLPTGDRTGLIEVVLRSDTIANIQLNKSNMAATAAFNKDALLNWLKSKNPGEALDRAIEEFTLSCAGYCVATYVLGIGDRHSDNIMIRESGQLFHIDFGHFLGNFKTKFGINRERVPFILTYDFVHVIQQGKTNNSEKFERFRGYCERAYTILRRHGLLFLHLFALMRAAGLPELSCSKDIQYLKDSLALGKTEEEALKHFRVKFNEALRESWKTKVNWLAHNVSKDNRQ
PI3Kdelta, sequence (P27986 whole entry partner, canonical isoform): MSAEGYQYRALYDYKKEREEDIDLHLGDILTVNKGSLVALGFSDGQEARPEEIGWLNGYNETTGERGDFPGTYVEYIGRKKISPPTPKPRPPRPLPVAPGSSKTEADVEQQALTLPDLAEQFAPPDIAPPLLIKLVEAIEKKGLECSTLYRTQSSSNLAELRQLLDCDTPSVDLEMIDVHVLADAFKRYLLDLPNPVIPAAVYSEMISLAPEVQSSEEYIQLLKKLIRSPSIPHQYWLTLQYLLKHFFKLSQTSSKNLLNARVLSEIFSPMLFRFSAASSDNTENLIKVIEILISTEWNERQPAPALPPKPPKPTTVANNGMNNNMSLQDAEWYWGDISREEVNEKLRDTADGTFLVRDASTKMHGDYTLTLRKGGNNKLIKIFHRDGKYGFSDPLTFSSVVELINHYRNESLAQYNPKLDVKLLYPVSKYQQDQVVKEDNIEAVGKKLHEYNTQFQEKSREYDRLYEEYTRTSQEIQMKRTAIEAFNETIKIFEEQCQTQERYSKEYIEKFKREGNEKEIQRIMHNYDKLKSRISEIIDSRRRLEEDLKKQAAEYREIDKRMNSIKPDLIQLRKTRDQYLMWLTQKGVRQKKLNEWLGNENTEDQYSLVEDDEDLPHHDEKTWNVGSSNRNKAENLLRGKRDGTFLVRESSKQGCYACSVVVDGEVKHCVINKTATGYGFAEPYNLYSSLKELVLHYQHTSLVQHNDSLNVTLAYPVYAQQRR

PI3Kalpha, sequence (P42336 whole entry, the tested form may be a part, canonical isoform): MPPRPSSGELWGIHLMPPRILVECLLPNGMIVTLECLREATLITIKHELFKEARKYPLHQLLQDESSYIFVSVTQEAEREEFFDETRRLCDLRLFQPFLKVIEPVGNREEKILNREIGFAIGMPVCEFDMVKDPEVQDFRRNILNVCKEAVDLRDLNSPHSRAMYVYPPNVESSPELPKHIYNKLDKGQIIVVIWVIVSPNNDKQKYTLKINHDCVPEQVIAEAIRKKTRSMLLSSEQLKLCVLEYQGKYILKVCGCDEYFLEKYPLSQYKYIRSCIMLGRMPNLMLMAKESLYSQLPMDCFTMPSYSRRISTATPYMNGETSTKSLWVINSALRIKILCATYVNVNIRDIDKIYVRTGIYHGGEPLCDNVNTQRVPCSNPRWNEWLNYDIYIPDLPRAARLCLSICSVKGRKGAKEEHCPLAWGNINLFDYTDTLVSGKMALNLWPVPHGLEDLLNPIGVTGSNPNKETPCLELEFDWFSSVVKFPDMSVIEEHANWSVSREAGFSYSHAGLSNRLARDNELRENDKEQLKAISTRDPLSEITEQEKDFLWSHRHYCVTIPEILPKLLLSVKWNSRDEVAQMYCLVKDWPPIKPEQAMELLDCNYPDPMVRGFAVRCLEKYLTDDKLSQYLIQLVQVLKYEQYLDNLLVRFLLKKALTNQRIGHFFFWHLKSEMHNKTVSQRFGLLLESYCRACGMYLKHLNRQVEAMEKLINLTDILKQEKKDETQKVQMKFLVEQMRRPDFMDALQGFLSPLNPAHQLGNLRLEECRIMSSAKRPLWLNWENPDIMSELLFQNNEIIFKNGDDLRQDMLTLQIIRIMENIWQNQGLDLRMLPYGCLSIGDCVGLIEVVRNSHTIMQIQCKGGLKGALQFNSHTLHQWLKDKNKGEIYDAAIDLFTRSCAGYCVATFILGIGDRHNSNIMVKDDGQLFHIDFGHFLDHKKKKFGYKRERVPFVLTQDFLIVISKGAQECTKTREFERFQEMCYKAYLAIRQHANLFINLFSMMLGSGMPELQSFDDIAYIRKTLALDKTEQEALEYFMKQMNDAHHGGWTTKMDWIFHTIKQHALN
PI3Kalpha, sequence (P27986 whole entry partner, the tested form may be a part, canonical isoform): as the sequence (P27986 whole entry partner, canonical isoform) above

The IC50 is the concentration at which inhibition is half-maximal. The low end stands for higher potency, the high end for lower potency. On to `CCn1c(-c2cnc(C)nc2)nc2c(NC[C@@H](C)C(=O)N3C[C@@H](C)O[C@@H](C)C3)ncnc21` [Compound 2-55, N-{(2R)-3-[(cis)-2,6-dimethylmorpholin-4-yl]-2-methyl-3-oxopropyl}-9-ethyl-8-(2-methylpyrimidin-5-yl)-9H-purin-6-amine], for which the “Selectivity versus PI3Kalpha” value in assay [1] is listed as greater than 10. The molecule further registered a 50% inhibitory concentration (IC50) in assay [2] of 0.02 µM.

Regarding `CC[C@H](Nc1ncnc2c1nc(-c1cnc(C)nc1)n2CC)C(=O)N1CC[C@@H]2CCCC[C@@H]2C1` [Compound 2-20, 9-ethyl-8-(2-methylpyrimidin-5-yl)-N-{(1S)-1-[(cis)-octahydroisoquinolin-2(1H)-ylcarbonyl]propyl}-9H-purin-6-amine], the “Selectivity versus PI3Kalpha” value in assay [1] is greater than 10. Moreover, the IC50 in assay [2] was determined as 0.014 µM.

Take `CC[C@H](Nc1ncnc2c1nc(-c1cnc(C)nc1)n2CC)C(=O)N1CCSC1C` (mixture of isomers) [Compound 2-24, 9-ethyl-8-(2-methylpyrimidin-5-yl)-N-{(1S)-1-[((S and R)-2-methyl-1,3-thiazolidin-3-yl)carbonyl]propyl}-9H-purin-6-amine]: in assay [1], the “Selectivity versus PI3Kalpha” value is given as greater than 10. This molecule also yielded an IC50 in assay [2] of 0.027 µM.

Turning to `CCC(Nc1ncnc2c1nc(-c1cnn(CC)c1C)n2C)C(=O)N1CCC(F)(F)CC1` (racemic) [Compound 1-5, (R and S)-N-{1-[(4,4-difluoropiperidin-1-yl)carbonyl]propyl}-8-(1-ethyl-5-methyl-1H-pyrazol-4-yl)-9-methyl-9H-purin-6-amine], in assay [1], the “Selectivity versus PI3Kalpha” value is given as greater than 10. For the same molecule, in assay [2], half-maximal inhibition (IC50) was put at 0.009 µM.

Turning to `CC[C@H](Nc1ncnc2c1nc(-c1cnc(C)nc1)n2CC)C(=O)N1CCS(=O)(=O)CC1` [Compound 2-8, N-{(1S)-1-[(1,1-dioxidothiomorpholin-4-yl)carbonyl]propyl}-9-ethyl-8-(2-methylpyrimidin-5-yl)-9H-purin-6-amine], the “Selectivity versus PI3Kalpha” value in assay [1] was greater than 10. In addition, the IC50 in assay [2] was 0.031 µM.

For `CCC(Nc1ncnc2c1nc(-c1cnc(C)nc1)n2CC)C(=O)N1CCn2c(CC(C)C)nnc2C1` (single isomer, unassigned) [Compound 5-1, (S or R)-9-ethyl-N-(1-{[3-(2-methylpropyl)-5,6-dihydro[1,2,4]triazolo[4,3-a]pyrazin-7(8H)-yl]carbonyl}propyl)-8-(2-methylpyrimidin-5-yl)-9H-purin-6-amine], the “Selectivity versus PI3Kalpha” value in assay [1] is greater than 10. This molecule yielded an IC50 in assay [2] of 0.038 µM.

For `CCn1c(-c2cnc(C)nc2)nc2c(NC[C@H](C)C(=O)N3C[C@@H](C)O[C@@H](C)C3)ncnc21` [Compound 2-54, N-{(2S)-3-[(cis)-2,6-dimethylmorpholin-4-yl]-2-methyl-3-oxopropyl}-9-ethyl-8-(2-methylpyrimidin-5-yl)-9H-purin-6-amine], the “Selectivity versus PI3Kalpha” value in assay [1] was greater than 10. Besides, the half-maximal inhibitory concentration (IC50) in assay [2] turned out to be 0.25 µM.

In the case of `CC[C@H](Nc1ncnc2c1nc(-c1cnc(C)nc1)n2CC)C(=O)N1CC[C@H](F)C1` [Compound 2-15, 9-ethyl-N-[(1S)-1-{[(3S)-3-fluoropyrrolidin-1-yl]carbonyl}propyl]-8-(2-methylpyrimidin-5-yl)-9H-purin-6-amine], the “Selectivity versus PI3Kalpha” value in assay [1] is greater than 10. The molecule also showed a concentration for half-maximal inhibition (IC50) in assay [2] of 0.037 µM.

As to `CC[C@H](Nc1ncnc2c1nc(-c1cnc(C)nc1)n2CC)C(=O)N1CCC(C)C1` (mixture of isomers) [Compound 2-18, 9-ethyl-8-(2-methylpyrimidin-5-yl)-N-{(1S)-1-[((S and R)-3-methylpyrrolidin-1-yl)carbonyl]propyl}-9H-purin-6-amine], the “Selectivity versus PI3Kalpha” value in assay [1] is reported as greater than 10. In assay [2], this molecule came in with an IC50 of 0.031 µM.

Regarding `CCn1c(-c2cnc(C)nc2)nc2c(N[C@H](C(=O)N3C[C@@H](C)O[C@@H](C)C3)C3CC3)ncnc21` [Compound 2-40, N-{(1S)-1-cyclopropyl-2-[(cis)-2,6-dimethylmorpholin-4-yl]-2-oxoethyl}-9-ethyl-8-(2-methylpyrimidin-5-yl)-9H-purin-6-amine], the “Selectivity versus PI3Kalpha” value in assay [1] was greater than 10. In assay [2], this molecule came in with an IC50 of 0.0041 µM.

As to `CC[C@H](Nc1ccnc2c1nc(-c1ccc(C(F)(F)F)nc1)n2CC)C(=O)N1C[C@@H](C)O[C@@H](C)C1` [Compound 3-2, N-[(1S)-1-{[(cis)-2,6-dimethylmorpholin-4-yl]carbonyl}propyl]-3-ethyl-2-[6-(trifluoromethyl)pyridin-3-yl]-3H-imidazo[4,5-b]pyridin-7-amine], in assay [1], the “Selectivity versus PI3Kalpha” value is greater than 10. Further, the IC50 in assay [2] stood at 0.0062 µM.

Consider `CC[C@H](Nc1ncnc2c1nc(-c1cnc(C)nc1)n2CC)C(=O)N1CCOC[C@@H]1C` [Compound 2-26, 9-ethyl-N-[(1S)-1-{[(3S)-3-methylmorpholin-4-yl]carbonyl}propyl]-8-(2-methylpyrimidin-5-yl)-9H-purin-6-amine], for which the “Selectivity versus PI3Kalpha” value in assay [1] is greater than 10. Further, the IC50 in assay [2] stood at 0.032 µM.

On to `CC[C@H](Nc1ncnc2c1nc(C(F)F)n2CC)C(=O)N1C[C@@H](C)O[C@@H](C)C1` [Compound 2-4, 8-(difluoromethyl)-N-[(1S)-1-{[(cis)-2,6-dimethylmorpholin-4-yl]carbonyl}propyl]-9-ethyl-9H-purin-6-amine], for which the “Selectivity versus PI3Kalpha” value in assay [1] is recorded as greater than 10. The molecule also came in with an IC50 in assay [2] of 0.099 µM.

As to `CCC(Nc1ncnc2c1nc(-c1cnc(C)nc1)n2CC)C(=O)N1CC(O)(C2CC2)C1` (single isomer, unassigned) [Compound 4-1, (S or R)-3-cyclopropyl-1-(2-{[9-ethyl-8-(2-methylpyrimidin-5-yl)-9H-purin-6-yl]amino}butanoyl)azetidin-3-ol], in assay [1], the “Selectivity versus PI3Kalpha” value is greater than 10. For the same molecule, inhibition in assay [2] was half-maximal at 0.03 µM (IC50).

As to `CC[C@H](Nc1ccnc2c1nc(-c1cnc(C)nc1)n2CC)C(=O)N1C[C@@H](C)O[C@@H](C)C1` [Compound 3-1, N-[(1S)-1-{[(cis)-2,6-dimethylmorpholin-4-yl]carbonyl}propyl]-3-ethyl-2-(2-methylpyrimidin-5-yl)-3H-imidazo[4,5-b]pyridin-7-amine], the “Selectivity versus PI3Kalpha” value in assay [1] was greater than 10. Moreover, half-maximal inhibition in assay [2] (IC50) required 0.017 µM.

With `CC[C@H](Nc1ncnc2c1nc(-c1cnc(C)nc1)n2CC)C(=O)N1CC[C@@H](F)C1` [Compound 2-16, 9-ethyl-N-[(1S)-1-{[(3R)-3-fluoropyrrolidin-1-yl]carbonyl}propyl]-8-(2-methylpyrimidin-5-yl)-9H-purin-6-amine], in assay [1], the “Selectivity versus PI3Kalpha” value is recorded as greater than 10. For the same molecule, in assay [2], the IC50 is 0.112 µM.

Turning to `CC[C@H](Nc1ncnc2c1nc(-c1cnc(C)nc1)n2CC)C(=O)N1C[C@H](C)O[C@@H](C)C1` (stereo in doubt) [Compound 2-36, N-[(1S)-1-{[(trans)-2,6-dimethylmorpholin-4-yl]carbonyl}propyl]-9-ethyl-8-(2-methylpyrimidin-5-yl)-9H-purin-6-amine], in assay [1], the “Selectivity versus PI3Kalpha” value is given as greater than 10. Further, the 50% inhibitory concentration (IC50) in assay [2] was 0.0091 µM.

Take `CC[C@H](Nc1ncnc2c1nc(-c1cnc(C)nc1)n2CC)C(=O)N1CCOC(C)(C)C1` [Compound 2-33, N-{(1S)-1-[(2,2-dimethylmorpholin-4-yl)carbonyl]propyl}-9-ethyl-8-(2-methylpyrimidin-5-yl)-9H-purin-6-amine]: the “Selectivity versus PI3Kalpha” value in assay [1] is given as greater than 10. This molecule also registered an IC50 in assay [2] of 0.0098 µM.

For `CCn1c(-c2cnc(C)nc2)nc2c(NC[C@@H](C)C(=O)N3CCCC3)ncnc21` [Compound 2-60, 9-ethyl-N-[(2R)-2-methyl-3-oxo-3-pyrrolidin-1-ylpropyl]-8-(2-methylpyrimidin-5-yl)-9H-purin-6-amine], the “Selectivity versus PI3Kalpha” value in assay [1] was greater than 10. The molecule also had a 50% inhibitory concentration (IC50) in assay [2] of 0.029 µM.

As for `CCn1c(-c2cnc(C)nc2)nc2c(N[C@H](CC(=O)N3CCCC3)C(C)C)ncnc21` [Compound 2-62, 9-ethyl-N-[(1R)-1-(1-methylethyl)-3-oxo-3-pyrrolidin-1-ylpropyl]-8-(2-methylpyrimidin-5-yl)-9H-purin-6-amine], the “Selectivity versus PI3Kalpha” value in assay [1] is greater than 10. In assay [2], this molecule yielded an IC50 of 0.1 µM.

With `CCC[C@H](Nc1ncnc2c1nc(-c1cnc(C)nc1)n2CC)C(=O)N1C[C@@H](C)O[C@@H](C)C1` [Compound 2-45, N-[(1S)-1-{[(cis)-2,6-dimethylmorpholin-4-yl]carbonyl}butyl]-9-ethyl-8-(2-methylpyrimidin-5-yl)-9H-purin-6-amine], in assay [1], the “Selectivity versus PI3Kalpha” value is recorded as greater than 10. In assay [2], the IC50 was 0.026 µM.

For the molecule `CC[C@H](Nc1ncnc2c1nc(-c1cnc(C)nc1)n2CC)C(=O)N1CCCC(F)(F)C1` [Compound 2-12, N-{(1S)-1-[(3,3-difluoropiperidin-1-yl)carbonyl]propyl}-9-ethyl-8-(2-methylpyrimidin-5-yl)-9H-purin-6-amine], the “Selectivity versus PI3Kalpha” value in assay [1] is greater than 10. This molecule also registered an IC50 in assay [2] of 0.011 µM.

`CCn1c(-c2cnc(C)nc2)nc2c(N[C@H](C(=O)N3C[C@@H](C)O[C@@H](C)C3)[C@@H](C)OC)ncnc21` [Compound 2-52, N-[(1S,2R)-1-{[(cis)-2,6-dimethylmorpholin-4-yl]carbonyl}-2-methoxypropyl]-9-ethyl-8-(2-methylpyrimidin-5-yl)-9H-purin-6-amine]: the “Selectivity versus PI3Kalpha” value in assay [1] is listed as greater than 10. In assay [2], this molecule had an IC50 of 0.0037 µM.

Take `CCn1c(-c2cnc(C)nc2)nc2c(N[C@H](C(=O)N3C[C@@H](C)O[C@@H](C)C3)C(C)(C)C)ncnc21` [Compound 2-42, N-[(1S)-1-{[(cis)-2,6-dimethylmorpholin-4-yl]carbonyl}-2,2-dimethylpropyl]-9-ethyl-8-(2-methylpyrimidin-5-yl)-9H-purin-6-amine]: the “Selectivity versus PI3Kalpha” value in assay [1] is recorded as greater than 10. Moreover, in assay [2], it took 0.0053 µM to reach half-maximal inhibition (IC50).

(Values after US10221178B2, “Purine inhibitors of human phosphatidylinositol 3-kinase delta” (MERCK SHARP & DOHME CORP., priority 2015, dated 2019).)
